Experimental data as given in patent US20250163006A1, “New Coolants, and Preparations Containing Same” (Symrise AG, priority 2022, published 2025).
Like-named read-outs stand apart in the source and are kept apart here. One block for each molecule: values may come before it.

Tests used:
[1] = Sensory tasting of cooling intensity by trained panelists, WS-3 as reference; assay type: in vivo, human; conditions: 5 ppm in 5% sugar solution, rated after one minute, scale 1 (very weak) to 9 (very strong); for cooling intensity (sensory evaluation, score): tasted 40 seconds, n=10 to 11; for Sensory evaluation: cooling intensity
Protocol: In order to quantify the cooling effect, comparative tests are carried out using menthane-3-carboxylic acid-N-ethylamide as a reference. For these comparative tests, the skilled person replaces the compound or compounds to be used according to the invention with menthane-3-carboxylic acid-N-ethylamide (also referred to as WS-3). Then the intensities of the cooling effects of the respective compounds or active ingredients are sensory evaluated by trained panelists (n=10 to 11) as described below and compared with each other.
The cooling intensity was tested as follows: Test solutions with 5 ppm of the compounds according to the invention were each tasted in a 5% sugar solution as well as a corresponding solution with 30 ppm of the reference substance WS-3. […] The panelists tasted the corresponding test solutions for exactly 40 seconds, rinsing the entire mouth with the corresponding test solution and then spitting out the sample or reference solution. Following the tasting, the test subjects rated the respective cooling intensity after one minute according to a scale of 1 (very weak) to 9 (very strong).

human TRPM8 receptor = target: T1, human TRPM8 receptor (Homo sapiens, UniProt Q7Z2W7); experiment: Assay on TRPM8 modulators: Ca2+-sensitive dye (Fluo-4) fluorescence in HEK293-TRPM8 test cells; assay type: cell-based; design: relative TRPM8 activation: concentration or dose not given beside the values; conditions: for EC50: HEK293-TRPM8 cells; for relative TRPM8 activation: HEK293 cells recombinantly expressing human TRPM8
T1 construct: expressed in transfected cells; host or cells: HEK293, stably transfected, tetracycline-inducible expression
How it was run: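 HEK293 cells stably carrying tetracycline-inducible human TRPM8 (1 µg/ml tetracycline), loaded next day with Fluo-4 (30 min 37 °C, 30 min RT). Compounds tested in triplicate at 0.1–200 µM (≤2% DMSO) and fluorescence read at 485/520 nm. EC50 from 4- or 5-parameter logistic fits of 6–10 concentrations.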

[2] = TRPM8 activation, 6 to 10 concentrations, logistic curve fitting, read-out: EC50 value

T1 sequence (Q7Z2W7 whole entry): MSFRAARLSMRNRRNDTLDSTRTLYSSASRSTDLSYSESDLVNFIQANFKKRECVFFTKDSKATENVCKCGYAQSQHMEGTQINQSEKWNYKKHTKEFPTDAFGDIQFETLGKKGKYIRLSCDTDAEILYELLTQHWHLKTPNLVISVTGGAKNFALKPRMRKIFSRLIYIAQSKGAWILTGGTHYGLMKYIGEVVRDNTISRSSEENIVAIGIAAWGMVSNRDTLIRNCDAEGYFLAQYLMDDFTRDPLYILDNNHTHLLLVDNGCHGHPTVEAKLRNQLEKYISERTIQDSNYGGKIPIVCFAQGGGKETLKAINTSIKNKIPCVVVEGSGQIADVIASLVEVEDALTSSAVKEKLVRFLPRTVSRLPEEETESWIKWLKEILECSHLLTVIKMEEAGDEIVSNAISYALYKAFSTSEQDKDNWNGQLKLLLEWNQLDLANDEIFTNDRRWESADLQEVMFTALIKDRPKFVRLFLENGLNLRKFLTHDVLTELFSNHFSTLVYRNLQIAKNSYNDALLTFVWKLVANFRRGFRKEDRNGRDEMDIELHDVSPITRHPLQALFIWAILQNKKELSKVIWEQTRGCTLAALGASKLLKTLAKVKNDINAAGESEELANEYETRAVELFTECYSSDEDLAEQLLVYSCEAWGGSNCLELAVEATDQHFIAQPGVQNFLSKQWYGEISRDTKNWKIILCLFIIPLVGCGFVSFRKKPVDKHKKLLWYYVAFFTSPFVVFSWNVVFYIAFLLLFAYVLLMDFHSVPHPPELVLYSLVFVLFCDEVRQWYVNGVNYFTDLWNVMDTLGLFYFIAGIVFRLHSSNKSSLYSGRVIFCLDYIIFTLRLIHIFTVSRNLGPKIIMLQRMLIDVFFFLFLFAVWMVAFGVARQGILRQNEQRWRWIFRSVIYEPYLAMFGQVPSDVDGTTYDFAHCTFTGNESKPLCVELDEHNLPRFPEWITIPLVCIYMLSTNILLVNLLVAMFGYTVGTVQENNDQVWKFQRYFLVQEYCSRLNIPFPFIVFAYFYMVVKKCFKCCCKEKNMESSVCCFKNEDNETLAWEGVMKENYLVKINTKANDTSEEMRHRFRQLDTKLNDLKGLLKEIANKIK

EC50 (human TRPM8 receptor; Table 6, read-out: TRPM8 EC50): 10 nM
EC50 (human TRPM8 receptor; Table 8, read-out: TRPM8 EC50): 10 nM
SMILES: CNC(=O)C(C)Sc1nc(-c2ccccc2)c(-c2ccccc2)o1 (stereo not drawn) [Compound A-02, 2-(4,5-diphenyloxazol-2-yl)sulfanyl-N-methyl-propanamide]
cooling intensity (sensory evaluation, score) [1]: 5.4
Sensory evaluation ([1]; Table 6): 5.4
Sensory evaluation ([1]; Table 10): 5.4

EC50 (human TRPM8 receptor; Table 6, read-out: TRPM8 EC50): 1540 nM
EC50 (human TRPM8 receptor; Table 8, read-out: TRPM8 EC50): 1540 nM
SMILES: CCC(Sc1nc(-c2ccccc2)c(-c2ccccc2)o1)C(=O)NC (stereo not drawn) [Compound A-09, 2-(4,5-diphenyloxazol-2-yl)sulfanyl-N-methyl-butanamide]
cooling intensity (sensory evaluation, score) [1]: 4.66
Sensory evaluation ([1]; Table 6): 4.66
Sensory evaluation ([1]; Table 10): 4.66

EC50 (human TRPM8 receptor; Table 6, read-out: TRPM8 EC50): 2310 nM
EC50 (human TRPM8 receptor; Table 8, read-out: TRPM8 EC50): 2310 nM
SMILES: CNC(=O)C(C)Sc1nc(C)c(-c2ccccc2)o1 (stereo not drawn) [Compound A-05, N-methyl-2-(4-methyl-5-phenyl-oxazol-2-yl)sulfanyl-propanamide]
Sensory evaluation ([1]; Table 6): 1.1
Sensory evaluation ([1]; Table 10): 1.1

relative TRPM8 activation (human TRPM8 receptor): 73%
SMILES: CC(Sc1nc(-c2ccccc2)c(-c2ccccc2)o1)C(N)=O (stereo not drawn) [Compound A-20, 2-(4,5-diphenyloxazol-2-yl)sulfanyl-propanamide]
Sensory evaluation ([1]; Table 6): 0.81

relative TRPM8 activation (human TRPM8 receptor): 5%
SMILES: CNC(=O)[C@H]1C[C@@H]1c1nc(-c2ccccc2)c(-c2ccccc2)o1 (racemic) [Compound A-39, rac-(1S,2S)-2-(4,5-diphenyloxazol-2-yl)-N-methyl-cyclopropane-carboxamides]
Sensory evaluation ([1]; Table 6): 0.7

relative TRPM8 activation (human TRPM8 receptor): 1%
SMILES: CCSc1nc(-c2ccccc2)c(-c2ccccc2)o1 [Compound A-55, 2-ethylsulfanyl-4,5-diphenyl-oxazole]
Sensory evaluation ([1]; Table 6): 0.59

EC50 (human TRPM8 receptor; Table 6, read-out: TRPM8 EC50): 5090 nM
EC50 (human TRPM8 receptor; Table 8, read-out: TRPM8 EC50): 5090 nM
SMILES: CCCNC(=O)C(C)Sc1nc(-c2ccccc2)c(-c2ccccc2)o1 (stereo not drawn) [Compound A-12, 2-(4,5-diphenyloxazol-2-yl)sulfanyl-N-propyl-propanamide]
Sensory evaluation ([1]; Table 6): 1.26
Sensory evaluation ([1]; Table 10): 1.26

EC50 (human TRPM8 receptor; [2]): ≤ 1000 nM
EC50 (human TRPM8 receptor; Table 5, read-out: TRPM8 EC50): 80 nM
EC50 (human TRPM8 receptor; Table 7, read-out: TRPM8 EC50): 80 nM
SMILES: CNC(=O)C(C)Sc1cnc(-c2ccccc2)c(-c2ccccc2)n1 (stereo not drawn) [Compound B-02, 2-(5,6-diphenylpyrazin-2-yl)sulfanyl-N-methyl-propanamide]
cooling intensity (sensory evaluation, score) [1]: 4.1
Sensory evaluation ([1]; Table 5): 4.1
Sensory evaluation ([1]; Table 9): 4.1

EC50 (human TRPM8 receptor; [2]): ≤ 1000 nM
EC50 (human TRPM8 receptor; Table 6, read-out: TRPM8 EC50): 600 nM
EC50 (human TRPM8 receptor; Table 8, read-out: TRPM8 EC50): 600 nM
SMILES: CNC(=O)[C@H]1C[C@H]1c1nc(-c2ccccc2)c(-c2ccccc2)o1 (racemic) [Compound A-04, rac-(1S,2R)-2-(4,5-diphenyloxazol-2-yl)-N-methyl-cyclopropane-carboxamides]
Sensory evaluation ([1]; Table 6): 0.5
Sensory evaluation ([1]; Table 10): 0.5

relative TRPM8 activation (human TRPM8 receptor): 80%
SMILES: O=C(CCc1nc(-c2ccccc2)c(-c2ccccc2)o1)NC1CC1 [Compound A-18, N-cyclopropyl-3-(4,5-diphenyloxazol-2-yl)propanamide]
Sensory evaluation ([1]; Table 6): 0.71

EC50 (human TRPM8 receptor; [2]): ≤ 1000 nM
EC50 (human TRPM8 receptor; Table 5, read-out: TRPM8 EC50): 50 nM
EC50 (human TRPM8 receptor; Table 7, read-out: TRPM8 EC50): 50 nM
SMILES: CC(Sc1nnc(-c2ccccc2)c(-c2ccccc2)n1)C(=O)NC1CC1 (stereo not drawn) [Compound B-01, N-Cyclopropyl-2-[(5,6-diphenyl-1,2,4-triazin-3-yl)sulfanyl] propanamide]
cooling intensity (sensory evaluation, score) [1]: 4.2
Sensory evaluation ([1]; Table 5): 4.2
Sensory evaluation ([1]; Table 9): 4.2

EC50 (human TRPM8 receptor; [2]): ≤ 1000 nM
EC50 (human TRPM8 receptor; Table 6, read-out: TRPM8 EC50): 150 nM
EC50 (human TRPM8 receptor; Table 8, read-out: TRPM8 EC50): 150 nM
SMILES: CCNC(=O)CCc1nc(-c2ccccc2)c(-c2ccccc2)o1 [Compound A-07, 3-(4,5-diphenyloxazol-2-yl)-N-ethyl-propanamide]
Sensory evaluation ([1]; Table 6): 2.67
Sensory evaluation ([1]; Table 10): 2.67

SMILES: CNC(=O)C(C)Sc1nnc2c3ccccc3c3ccccc3c2n1 (stereo not drawn) [Compound B-07, N-methyl-2-phenanthro[9,10-e][1,2,4]triazine-3-ylsulfanyl-propanamide]
Sensory evaluation ([1]; Table 5): 0.75
Sensory evaluation ([1]; Table 9): 0.75
EC50 (human TRPM8 receptor; EC50 value, TRPM8 activation, 6 to 10 concentrations, logistic curve fitting): ≤ 1000 nM
EC50 (human TRPM8 receptor; TRPM8 EC50, Table 5): 920 nM
EC50 (human TRPM8 receptor; TRPM8 EC50, Table 7): 920 nM

EC50 (human TRPM8 receptor; Table 6, read-out: TRPM8 EC50): 2130 nM
EC50 (human TRPM8 receptor; Table 8, read-out: TRPM8 EC50): 2130 nM
SMILES: CC(Sc1nc(-c2ccccc2)c(-c2ccccc2)o1)C(=O)NC1CC1 (stereo not drawn) [Compound A-10, N-cyclopropyl-2-(4,5-diphenyloxazol-2-yl) sulfanyl-propanamide]
cooling intensity (sensory evaluation, score) [1]: 5.38
Sensory evaluation ([1]; Table 6): 5.38
Sensory evaluation ([1]; Table 10): 5.38

relative TRPM8 activation (human TRPM8 receptor): 11%
SMILES: CC(Sc1nnc(-c2ccccc2)c(-c2ccccc2)n1)C(=O)N(C)C1CCCCC1 (stereo not drawn) [Compound B-39, N-cyclohexyl-2-[(5,6-diphenyl-1,2,4-triazin-3-yl)sulfanyl]-N-methyl-propanamide]

relative TRPM8 activation (human TRPM8 receptor): 4%
SMILES: CCC(=O)Nc1nnc(-c2ccccc2)c(-c2ccccc2)n1 [Compound B-47, N-(5,6-diphenyl-1,2,4-triazin-3-yl)propanamide]

relative TRPM8 activation (human TRPM8 receptor): 42%
SMILES: CCC(=O)C(C)Sc1nnc(-c2ccccc2)c(-c2ccccc2)n1 (stereo not drawn) [Compound B-29, 2-[(5,6-diphenyl-1,2,4-triazin-3-yl)sulfanyl]pentan-3-one]

relative TRPM8 activation (human TRPM8 receptor): −1%
SMILES: COC(=O)NCCc1nc(-c2ccccc2)c(-c2ccccc2)o1 [Compound A-63, methyl N-[2-(4,5-diphenyloxazol-2-yl)ethyl]carbamate]

relative TRPM8 activation (human TRPM8 receptor): −5%
SMILES: CNC(=O)CSc1nc(-c2ccc(OC)cc2)c(-c2ccc(OC)cc2)o1 [Compound A-72, 2-[4,5-bis(4-methoxyphenyl)oxazol-2-yl]sulfanyl-N-methyl-acetamide]

relative TRPM8 activation (human TRPM8 receptor): 13%
SMILES: CNC(=O)/C=C/c1nc(-c2ccccc2)c(-c2ccccc2)o1 [Compound A-35, (E)-3-(4,5-diphenyloxazol-2-yl)-N-methyl-prop-2-enamide]

relative TRPM8 activation (human TRPM8 receptor): 1%
SMILES: CNC(=O)CSc1ncco1 [Compound A-59, N-methyl-2-oxazol-2-ylsulfanyl-acetamide]

relative TRPM8 activation (human TRPM8 receptor): 2%
SMILES: CCC(=O)C(C)Sc1nc(-c2ccccc2)c(-c2ccccc2)o1 (stereo not drawn) [Compound A-48, 2-(4,5-diphenyloxazol-2-yl) sulfanylpentan-3-one]

relative TRPM8 activation (human TRPM8 receptor): 12%
SMILES: CNC(=O)CCCc1nc(-c2ccccc2)c(-c2ccccc2)o1 [Compound A-36, 4-(4,5-diphenyloxazol-2-yl)-N-methyl-butanamide]

relative TRPM8 activation (human TRPM8 receptor): 2%
SMILES: CNC(=O)C(C)Oc1nnc(-c2ccccc2)c(-c2ccccc2)n1 (stereo not drawn) [Compound B-57, 2-[(5,6-diphenyl-1,2,4-triazin-3-yl)oxy]-N-methyl-propanamide]

relative TRPM8 activation (human TRPM8 receptor): 23%
SMILES: CNC(=O)CCc1nc(-c2ccc(C)cc2)c(-c2ccc(C)cc2)o1 [Compound A-32, 3-[4,5-bis (p-tolyl)oxazol-2-yl]-N-methyl-propanamide]

EC50 (human TRPM8 receptor; Table 6, read-out: TRPM8 EC50): 7140 nM
EC50 (human TRPM8 receptor; Table 8, read-out: TRPM8 EC50): 7140 nM
SMILES: CNC(=O)CSc1nc(-c2ccccc2)c(-c2ccccc2)o1 [Compound A-15, 2-(4,5-diphenyloxazol-2-yl)sulfanyl-N-methyl-acetamide]

SMILES: O=C(CSc1nnc(-c2ccccc2)c(-c2ccccc2)n1)NC1CC1 [Compound B-19, N-cyclopropyl-2-[(5,6-diphenyl-1,2,4-triazin-3-yl)sulfanyl]acetamide]
Sensory evaluation ([1]; Table 5): 1.9
Sensory evaluation ([1]; Table 9): 1.9

relative TRPM8 activation (human TRPM8 receptor): 3%
SMILES: c1ccc(CSc2nnc(-c3ccccc3)c(-c3ccccc3)n2)cc1 [Compound B-49, 3-benzylsulfanyl-5,6-diphenyl-1,2,4-triazine]

EC50 (human TRPM8 receptor; [2]): ≤ 1000 nM
EC50 (human TRPM8 receptor; Table 6, read-out: TRPM8 EC50): 110 nM
EC50 (human TRPM8 receptor; Table 8, read-out: TRPM8 EC50): 110 nM
SMILES: CSCC(=O)N1CCCCC1c1nc(-c2ccc(C)cc2)co1 (stereo not drawn) [Compound A-08, 2-methylsulfanyl-1-[2-[4-(p-tolyl)oxazol-2-yl]-1-piperidyl] ethanone]

relative TRPM8 activation (human TRPM8 receptor): 13%
SMILES: CCSc1nnc(-c2ccccc2)c(-c2ccccc2)n1 [Compound B-37, 3-ethylsulfanyl-5,6-diphenyl-1,2,4-triazine]

relative TRPM8 activation (human TRPM8 receptor): 56%
SMILES: CN(C)C(=O)CSc1nnc(-c2ccccc2)c(-c2ccccc2)n1 [Compound B-27, 2-[(5,6-diphenyl-1,2,4-triazin-3-yl)sulfanyl]-N,N-dimethyl-acetamide]

relative TRPM8 activation (human TRPM8 receptor): 24%
SMILES: O=C(CCc1nc(-c2ccccc2)c(-c2ccccc2)o1)C1CC1 [Compound A-31, 1-cyclopropyl-3-(4,5-diphenyloxazol-2-yl)propan-1-one]

EC50 (human TRPM8 receptor; [2]): 1720 nM
SMILES: CCNC(=O)C1CC(C)CCC1C(C)C [WS-3, L-menthanecarboxylic acid N-ethylamide, reference compound]
